Assay results taken from patent US20230293487A1, “ANTI-INFLAMMATORY COMPOSITION COMPRISING BENZOFURAN-BASED N-ACYLHYDRAZONE DERIVATIVES” (KOREA RESEARCH INSTITUTE OF BIOSCIENCE AND BIOTECHNOLOGY, priority 2020, published 2023).

Legend:
[1] = test system: NF-κB; assay: NF-κB luciferase reporter assay, TNF-α induced (Test Example 1); assay type: cell-based; conditions: Homo sapiens; HEK293, NF-κB luciferase vector, 10 ng/ml TNF-α, 1 uM compound; FIG. 1; read-out: NF-κB activity inhibited (reporter activity)
Description: The cultured human-derived HEK293 cell line was transfected with the NF-κB luciferase (reporter) vector, and treated with 10 ng/ml of TNF-α to induce activation of the NF-κB signaling pathway. In addition, during the above process, 1 uM of each of 9 kinds of compounds represented by [Chemical Formula 1] was treated to measure the inhibitory effect of the NF-κB-mediated inflammatory response regulatory pathway. Specifically, the relative expression level of NF-κB was confirmed.

[2] = test system: NF-κB; assay: NF-κB luciferase assay, luminometer (Test Example 3); assay type: cell-based, human; conditions: HEK293, 1 uM compound, 10 ng/ml TNF-α; FIG. 3
Description: HEK293 cell line, a human-derived embryonic kidney cell line, was cultured, transfected with NF-κB luciferase vector, treated with 1 uM of the compound, and then treated with 10 ng/ml of TNF-α to induce the NF-κB pathway. Luciferase assay method was performed to quantitatively measure the effect on NF-κB gene expression using a luminometer.

[3] = test system: mice (oxazolone-induced skin inflammation); assay: Oxazolone-induced skin inflammation in mouse ears (Test Example 4): naked eye, H&E staining, immune cell count; assay type: in vivo; conditions: compound 20 μl at 500 nM, 5 applications; for number of inflammatory immune cells in skin: counted from H&E pictures, FIG. 6; for skin condition of ears confirmed with naked eye / thickness of the entire skin and epithelium (H&E staining): oxazolone on mouse ears; for skin condition of ears confirmed with naked eye: FIG. 4; for thickness of the entire skin and epithelium (H&E staining): FIG. 5
Description: 3% Oxazolone (150 μl) was applied to the abdominal skin of 6-week-old mice to induce an immune response, and 0.5% diluted oxazolone (20 μl) was applied to the ears of mice a total of 5 times at intervals of one day to induce an inflammatory response. After 30 minutes of oxazolone application, Example 4 (CAP-1042) or Example 12 (CAP-1047) was applied a total of 5 times in an amount of 20 μl each at a concentration of 500 nM each.
The number of mice in each experimental group was maintained at 10 or more, and the experiment was repeated twice in total.
Specifically, after H&E staining (FIG. 5), photographs of at least 10 different parts of each sample were taken evenly under a microscope. Then, the number of inflammatory immune cells stained in dark red was directly counted from the pictures taken, and the average value was calculated.

[4] = test system: mice (LPS-induced sepsis); assay: LPS-induced sepsis (cytokine storm-like) model (Test Example 7); assay type: in vivo; conditions: LPS intraperitoneal, drug intravenous; FIG. 11B
Description: Since there were no disease model animals leading to death from a cytokine storm caused by coronaviruses, particularly Sars-Cov2, the present inventors used an acute sepsis model in which an acute inflammatory response is induced to cause the cytokine storm problem and confirmed inhibition of the cytokine storm, the possibility of treating severe acute respiratory syndrome coronavirus 2 infection disease and the possibility of treating sepsis.
An experiment was performed by treating LPS on an animal model (cytokine storm-like model) of sepsis (death). Mice were intraperitoneally administered with LPS for induction of sepsis and injected intravenously with the drug (Example 4), and then blood was collected at 3, 6, and 12 hours. The survival rate was confirmed for 48 hours to observe mortality due to sepsis.

[5] = test system: P-p65 protein; assay: Western blotting of NF-κB canonical pathway, induced with TNF-α (Test Example 5); assay type: cell-based; conditions: TNFα induction, own compound used = Example 4 (1042), b448, FIG. 8
From the text: (§1) The NF-κB signaling pathway is largely divided into canonical and non-canonical pathways. In the canonical pathway, when an inflammatory response is induced by treatment with TNF-α, the amount of P-p65 protein, which is a phosphorylated product of p65 protein, increases and migrates into the nucleus, inducing an inflammatory response. In the non-canonical pathway, when an inflammatory response is induced with a LIGHT compound that activates the non-canonical NF-κB pathway, the p100 protein is converted into p52 protein through processing and migrates into the nucleus to induce an inflammatory response. […] Specifically, in order to confirm whether the activation of NF-κB signaling pathways (canonical and non-canonical pathways) is regulated, the regulation of phosphorylated p65 and p100 proteins, which are major signal regulating molecules, was confirmed using Western blotting. In the present experiment, the compound of Example 4 (1042) was used as the compound according to the present disclosure.

[6] = test system: p100 protein; assay: Western blotting of NF-κB non-canonical pathway, induced with LIGHT (Test Example 5); assay type: cell-based; conditions: LIGHT induction, own compound used = Example 4 (1042), b448, FIG. 8
From the text: as §1

Row | Molecule | expression amount of the NF-κB gene (luciferase) [2] | inhibition at 1 µM [1] [%] | other results
1 | Cc1ccc2oc(C(=O)N/N=C/c3c(Cl)[nH]c4ccccc34)cc2c1 [Example 1, (E)-N′-[(2-chloro-1H-indol-3-yl)methylene]-5-methylbenzofuran-2-carbohydrazide] | – | ≥ 50 | –
2 | CCOCCn1c(Cl)c(/C=N/NC(=O)c2cc3cc(C)ccc3o2)c2ccccc21 [Example 4, (E)-N′-[(2-chloro-1-(2-ethoxyethyl)-1H-indol-3-yl]methylene}-5-methylbenzofuran-2-carbohydrazide] | significantly decreased | ≥ 50 | number of inflammatory immune cells in skin [3]: reduced the number of immune cells induced by the inflammatory reaction to the extent very similar to that of the normal case treated with ethanol; skin condition of ears confirmed with naked eye [3]: skin conditions very similar to those of normal animals treated with ethanol; thickness of the entire skin and epithelium (H&E staining) [3]: reduced to the extent very similar to that of the normal skin treated with ethanol; mortality due to sepsis (survival rate after 48 hours) [4]: significantly reduced mortality due to sepsis
3 | CCOCCn1c(Cl)c(/C=N/NC(=O)c2cc3cc(C)ccc3o2)c2cc(OC)ccc21 [Example 8, (E)-N′-[(2-chloro-1-(2-ethoxyethyl)-5-methoxy-1H-indol-3-yl]methylene}-5-methylbenzofuran-2-carbohydrazide] | – | ≥ 50 | –
4 | CCOCCn1c(Cl)c(/C=N/NC(=O)c2cc3cc(C)ccc3o2)c2ccc(OC)cc21 [Example 9, (E)-N′-[(2-chloro-1-(2-ethoxyethyl)-6-methoxy-1H-indol-3-yl]methylene}-5-methylbenzofuran-2-carbohydrazide] | – | ≥ 50 | –
5 | CCOCCn1c(Cl)c(/C=N/NC(=O)c2cc3cc(C)ccc3o2)c2cc(F)ccc21 [Example 10, (E)-N′-[(2-chloro-1-(2-ethoxyethyl)-5-fluoro-1H-indol-3-yl]methylene}-5-methylbenzofuran-2-carbohydrazide] | significantly decreased | ≥ 50 | –
6 | CCOCCn1c(Cl)c(/C=N/NC(=O)c2cc3cc(C)ccc3o2)c2cc(OC(F)(F)F)ccc21 [Example 12, (E)-N′-[(2-chloro-1-(2-ethoxyethyl)-5-(trifluoromethoxy)-1H-indol-3-yl]methylene}-5-methylbenzofuran-2-carbohydrazide] | significantly decreased | ≥ 50 | skin condition of ears confirmed with naked eye [3]: skin conditions very similar to those of normal animals treated with ethanol; thickness of the entire skin and epithelium (H&E staining) [3]: reduced to the extent very similar to that of the normal skin treated with ethanol
7 | CCOC(=O)Cn1c(C)c(/C=N/NC(=O)c2cc3cc(C)ccc3o2)c2ccccc21 [Example 21, ethyl (E)-2-(2-methyl-3-((2-(5-methylbenzofuran-2-carbonyl)hydrazinylidene)methyl)-1H-indol-1-yl)acetate] | – | – | melting point: 186 °C
8 | CCOC(=O)Cn1c(C)c(/C=N/NC(=O)c2cc3cc(Cl)ccc3o2)c2ccccc21 [Example 22] | – | – | melting point: 214 °C
9 | COC(=O)Cn1c(Cl)c(/C=N/NC(=O)c2cc3cc(C)ccc3o2)c2ccccc21 [Example 23, methyl (E)-2-(2-chloro-3-((2-(5-methylbenzofuran-2-carbonyl)hydrazinylidene)methyl)-1H-indol-1-yl)acetate] | – | ≥ 50 | melting point: 212 °C
10 | NC(=O)Nc1sc(-c2ccc(F)cc2)cc1C(N)=O [TPCA1] | – | – | inhibition of canonical NF-κB pathway (P-p65) [5]: acts on the canonical pathway; inhibition of non-canonical NF-κB pathway (p100 to p52 processing) [6]: not on the non-canonical pathway
11 | (E)-N′-[(2-chloro-1-(2-methoxyethyl)-1H-indol-3-yl]methylene}-5-methylbenzofuran-2-carbohydrazide [Example 7] | – | – | number of inflammatory immune cells in skin [3]: reduced the number of immune cells induced by the inflammatory reaction to the extent very similar to that of the normal case treated with ethanol

Now from value to molecule, other results behind:

Row | expression amount of the NF-κB gene (luciferase) [2] | Molecule | inhibition at 1 µM [1] [%] | other results
12 | significantly decreased | CCOCCn1c(Cl)c(/C=N/NC(=O)c2cc3cc(C)ccc3o2)c2cc(Cl)ccc21 [Example 11, (E)-N′-[(2,5-dichloro-1-(2-ethoxyethyl)-1H-indol-3-yl]methylene}-5-methylbenzofuran-2-carbohydrazide] | ≥ 50 | –
13 | significantly decreased | CCOCCn1c(Cl)c(/C=N/NC(=O)c2cc3cc(C)ccc3o2)c2cc(C)ccc21 [Example 13, (E)-N′-[(2-chloro-1-(2-ethoxyethyl)-5-methyl-1H-indol-3-yl]methylene}-5-methylbenzofuran-2-carbohydrazide] | ≥ 50 | –
